Organism: Rattus norvegicus
Assay: Open TG-GATES - Regimen: Daily Repeat
Assay type: toxicity, organism-based, Sprague-Dawley
Parameters: regimen Daily Repeat, gender Male, age 6 weeks
Details: in vivo, po, route gavage; for APTT / Bas / Eos / Fbg / Hb / Ht / Lym / MCH / MCHC / MCV / Mono / Neu / PT / Plat / RBC / Ret / WBC: tissue Blood; for KIDNEY_L / KIDNEY_R / KIDNEY_TOTAL: tissue Kidney; for LIVER: tissue Liver; for A/G / ALP / ALT / AST / BUN / CRE / Ca / Cl / DBIL / GLC / IP / K / LDH / Na / PL / RALB / TBIL / TC / TG / TP / gamma-GTP: tissue Plasma
[1] = 0 mg/kg, 72 h, dose level Control, time 3 day
[2] = 0 mg/kg, […], dose level Control, time 7 day
[3] = 0 mg/kg, […], dose level Control, time 14 day
[4] = 0 mg/kg, […], dose level Control, time 28 day
[5] = 5 mg/kg, 72 h, dose level Low, time 3 day
[6] = 5 mg/kg, […], dose level Low, time 7 day
[7] = 5 mg/kg, […], dose level Low, time 14 day
[8] = 5 mg/kg, […], dose level Low, time 28 day

CC(=N)S [THIOACETAMIDE]
TERMINAL_BW [1]: 229.8 g
APTT [1]: 17 s
Bas [1]: 0%
Eos [1]: 1%
Fbg [1]: 232.2 mg/dL
Hb [1]: 13.8 g/dL
Ht [1]: 42.6%
Lym [1]: 74.8%
MCH [1]: 21.2 pg
MCHC [1]: 32.5%
MCV [1]: 65.3 fL
Mono [1]: 8%
Neu [1]: 16.4%
PT [1]: 11.5 s
Plat [1]: 111.4 x10_4/uL
RBC [1]: 652.8 x10_4/ul
Ret [1]: 7%
WBC [1]: 125.1 x10_2/uL
KIDNEY_L [1]: 1 g
KIDNEY_R [1]: 1 g
KIDNEY_TOTAL [1]: 2 g
LIVER [1]: 10.7 g
A/G [1]: 2.1
ALP [1]: 1014.4 IU/L
ALT [1]: 31 IU/L
AST [1]: 62.2 IU/L
BUN [1]: 17 mg/dL
CRE [1]: 0.6 mg/dL
Ca [1]: 10.4 mg/dL
Cl [1]: 104.2 meq/L
DBIL [1]: 0.018 mg/dL
GLC [1]: 196.6 mg/dL
IP [1]: 7.6 mg/dL
K [1]: 4.9 meq/L
LDH [1]: 88 IU/L
Na [1]: 137.6 meq/L
PL [1]: 157.4 mg/dL
RALB [1]: 4 g/dL
TBIL [1]: 0.4 mg/dL
TC [1]: 80.4 mg/dL
TG [1]: 106.6 mg/dL
TP [1]: 5.8 g/dL
gamma-GTP [1]: 1 IU/L
TERMINAL_BW [2]: 254.8 g
TERMINAL_BW [3]: 312.2 g
TERMINAL_BW [4]: 377.5 g
APTT [2]: 17.3 s
Bas [2]: 0%
Eos [2]: 1%
Fbg [2]: 226.2 mg/dL
Hb [2]: 13.8 g/dL
Ht [2]: 41.8%
Lym [2]: 83.6%
MCH [2]: 20.8 pg
MCHC [2]: 33%
MCV [2]: 63.1 fL
Mono [2]: 4.4%
Neu [2]: 10.8%
PT [2]: 11.8 s
Plat [2]: 111.5 x10_4/uL
RBC [2]: 661.6 x10_4/ul
Ret [2]: 5.3%
WBC [2]: 145.6 x10_2/uL
APTT [3]: 17.4 s
Bas [3]: 0%
Eos [3]: 0.8%
Fbg [3]: 223.8 mg/dL
Hb [3]: 14.6 g/dL
Ht [3]: 44.1%
Lym [3]: 81%
MCH [3]: 20.2 pg
MCHC [3]: 33.1%
MCV [3]: 61.1 fL
Mono [3]: 5.8%
Neu [3]: 12.6%
PT [3]: 11.8 s
Plat [3]: 101.4 x10_4/uL
RBC [3]: 722.8 x10_4/ul
Ret [3]: 4.5%
WBC [3]: 145.6 x10_2/uL
APTT [4]: 17.5 s
Bas [4]: 0%
Eos [4]: 1%
Fbg [4]: 248.6 mg/dL
Hb [4]: 15.9 g/dL
Ht [4]: 46.8%
Lym [4]: 86.2%
MCH [4]: 19.7 pg
MCHC [4]: 33.9%
MCV [4]: 58 fL
Mono [4]: 4%
Neu [4]: 9.2%
PT [4]: 10.8 s
Plat [4]: 104.1 x10_4/uL
RBC [4]: 807.6 x10_4/ul
Ret [4]: 2.8%
WBC [4]: 194 x10_2/uL
KIDNEY_L [2]: 1.1 g
KIDNEY_R [2]: 1.1 g
KIDNEY_TOTAL [2]: 2.1 g
KIDNEY_L [3]: 1.2 g
KIDNEY_R [3]: 1.2 g
KIDNEY_TOTAL [3]: 2.3 g
KIDNEY_L [4]: 1.4 g
KIDNEY_R [4]: 1.4 g
KIDNEY_TOTAL [4]: 2.7 g
LIVER [2]: 11.8 g
LIVER [3]: 13.8 g
LIVER [4]: 15.2 g
A/G [2]: 1.8
ALP [2]: 868.8 IU/L
ALT [2]: 27.4 IU/L
AST [2]: 56.8 IU/L
BUN [2]: 19.4 mg/dL
CRE [2]: 0.6 mg/dL
Ca [2]: 10.3 mg/dL
Cl [2]: 104.4 meq/L
DBIL [2]: 0.016 mg/dL
GLC [2]: 190.2 mg/dL
IP [2]: 7.1 mg/dL
K [2]: 5.2 meq/L
LDH [2]: 79 IU/L
Na [2]: 136.2 meq/L
PL [2]: 154.6 mg/dL
RALB [2]: 3.9 g/dL
TBIL [2]: 0.3 mg/dL
TC [2]: 75 mg/dL
TG [2]: 145.8 mg/dL
TP [2]: 6.1 g/dL
gamma-GTP [2]: 1 IU/L
A/G [3]: 2
ALP [3]: 716 IU/L
ALT [3]: 32.2 IU/L
AST [3]: 64.8 IU/L
BUN [3]: 18.6 mg/dL
CRE [3]: 0.6 mg/dL
Ca [3]: 10.1 mg/dL
Cl [3]: 103 meq/L
DBIL [3]: 0.002 mg/dL
GLC [3]: 181.6 mg/dL
IP [3]: 7.1 mg/dL
K [3]: 4.7 meq/L
LDH [3]: 76 IU/L
Na [3]: 134.8 meq/L
PL [3]: 169 mg/dL
RALB [3]: 4.1 g/dL
TBIL [3]: 0.3 mg/dL
TC [3]: 81.6 mg/dL
TG [3]: 158.6 mg/dL
TP [3]: 6.1 g/dL
gamma-GTP [3]: 1.4 IU/L
A/G [4]: 1.9
ALP [4]: 629 IU/L
ALT [4]: 29.4 IU/L
AST [4]: 63 IU/L
BUN [4]: 18.8 mg/dL
CRE [4]: 0.6 mg/dL
Ca [4]: 10.1 mg/dL
Cl [4]: 103 meq/L
DBIL [4]: 0 mg/dL
GLC [4]: 179.4 mg/dL
IP [4]: 6.8 mg/dL
K [4]: 4.5 meq/L
LDH [4]: 96.4 IU/L
Na [4]: 135.4 meq/L
PL [4]: 172.8 mg/dL
RALB [4]: 4.1 g/dL
TBIL [4]: 0.2 mg/dL
TC [4]: 83 mg/dL
TG [4]: 174.6 mg/dL
TP [4]: 6.3 g/dL
gamma-GTP [4]: 1.2 IU/L
TERMINAL_BW [5]: 228.6 g
APTT [5]: 16.9 s
Bas [5]: 0%
Eos [5]: 1%
Fbg [5]: 234 mg/dL
Hb [5]: 13.6 g/dL
Ht [5]: 41.4%
Lym [5]: 78.8%
MCH [5]: 21 pg
MCHC [5]: 32.9%
MCV [5]: 63.8 fL
Mono [5]: 8.2%
Neu [5]: 12.2%
PT [5]: 11.6 s
Plat [5]: 111 x10_4/uL
RBC [5]: 649.4 x10_4/ul
Ret [5]: 6.6%
WBC [5]: 139.8 x10_2/uL
KIDNEY_L [5]: 1 g
KIDNEY_R [5]: 1.1 g
KIDNEY_TOTAL [5]: 2.1 g
LIVER [5]: 11.7 g
A/G [5]: 2.1
ALP [5]: 900 IU/L
ALT [5]: 28 IU/L
AST [5]: 58.8 IU/L
BUN [5]: 16.2 mg/dL
CRE [5]: 0.5 mg/dL
Ca [5]: 10.7 mg/dL
Cl [5]: 104.8 meq/L
DBIL [5]: 0.004 mg/dL
GLC [5]: 192.6 mg/dL
IP [5]: 7.8 mg/dL
K [5]: 4.7 meq/L
LDH [5]: 95.2 IU/L
Na [5]: 137 meq/L
PL [5]: 159.8 mg/dL
RALB [5]: 4 g/dL
TBIL [5]: 0.3 mg/dL
TC [5]: 83.2 mg/dL
TG [5]: 123.2 mg/dL
TP [5]: 5.9 g/dL
gamma-GTP [5]: 2 IU/L
TERMINAL_BW [6]: 252.6 g
TERMINAL_BW [7]: 308.5 g
TERMINAL_BW [8]: 375.1 g
APTT [6]: 16.4 s
Bas [6]: 0%
Eos [6]: 1%
Fbg [6]: 229.2 mg/dL
Hb [6]: 13.8 g/dL
Ht [6]: 41.5%
Lym [6]: 82%
MCH [6]: 20.9 pg
MCHC [6]: 33.3%
MCV [6]: 62.9 fL
Mono [6]: 6.6%
Neu [6]: 10.2%
PT [6]: 12.1 s
Plat [6]: 111.2 x10_4/uL
RBC [6]: 660.4 x10_4/ul
Ret [6]: 5.3%
WBC [6]: 155.6 x10_2/uL
APTT [7]: 17.1 s
Bas [7]: 0%
Eos [7]: 0.8%
Fbg [7]: 231.8 mg/dL
Hb [7]: 14.6 g/dL
Ht [7]: 44.1%
Lym [7]: 83.6%
MCH [7]: 19.8 pg
MCHC [7]: 33.1%
MCV [7]: 59.9 fL
Mono [7]: 6%
Neu [7]: 10%
PT [7]: 12.3 s
Plat [7]: 102 x10_4/uL
RBC [7]: 736.2 x10_4/ul
Ret [7]: 3.9%
WBC [7]: 165.2 x10_2/uL
APTT [8]: 17 s
Bas [8]: 0%
Eos [8]: 0.8%
Fbg [8]: 242.4 mg/dL
Hb [8]: 15 g/dL
Ht [8]: 44.9%
Lym [8]: 85.2%
MCH [8]: 19.6 pg
MCHC [8]: 33.5%
MCV [8]: 58.5 fL
Mono [8]: 3.6%
Neu [8]: 10.4%
PT [8]: 11.1 s
Plat [8]: 111.7 x10_4/uL
RBC [8]: 767.8 x10_4/ul
Ret [8]: 3%
WBC [8]: 184.6 x10_2/uL
KIDNEY_L [6]: 1 g
KIDNEY_R [6]: 1.1 g
KIDNEY_TOTAL [6]: 2.1 g
KIDNEY_L [7]: 1.2 g
KIDNEY_R [7]: 1.2 g
KIDNEY_TOTAL [7]: 2.4 g
KIDNEY_L [8]: 1.3 g
KIDNEY_R [8]: 1.4 g
KIDNEY_TOTAL [8]: 2.7 g
LIVER [6]: 12.3 g
LIVER [7]: 13.6 g
LIVER [8]: 16.5 g
A/G [6]: 1.9
ALP [6]: 742.6 IU/L
ALT [6]: 31.8 IU/L
AST [6]: 56 IU/L
BUN [6]: 18 mg/dL
CRE [6]: 0.5 mg/dL
Ca [6]: 10.5 mg/dL
Cl [6]: 105 meq/L
DBIL [6]: 0.008 mg/dL
GLC [6]: 186.6 mg/dL
IP [6]: 7.6 mg/dL
K [6]: 5.1 meq/L
LDH [6]: 84.8 IU/L
Na [6]: 135.2 meq/L
PL [6]: 160 mg/dL
RALB [6]: 3.9 g/dL
TBIL [6]: 0.3 mg/dL
TC [6]: 76.4 mg/dL
TG [6]: 167.4 mg/dL
TP [6]: 6 g/dL
gamma-GTP [6]: 1.4 IU/L
A/G [7]: 2
ALP [7]: 870.6 IU/L
ALT [7]: 29.8 IU/L
AST [7]: 62 IU/L
BUN [7]: 18.2 mg/dL
CRE [7]: 0.6 mg/dL
Ca [7]: 10.2 mg/dL
Cl [7]: 104.6 meq/L
DBIL [7]: 0.006 mg/dL
GLC [7]: 185.4 mg/dL
IP [7]: 6.8 mg/dL
K [7]: 5 meq/L
LDH [7]: 78.6 IU/L
Na [7]: 134.2 meq/L
PL [7]: 135.8 mg/dL
RALB [7]: 4.1 g/dL
TBIL [7]: 0.4 mg/dL
TC [7]: 61.6 mg/dL
TG [7]: 156.8 mg/dL
TP [7]: 6.2 g/dL
gamma-GTP [7]: 2 IU/L
A/G [8]: 1.6
ALP [8]: 613.4 IU/L
ALT [8]: 25.8 IU/L
AST [8]: 54.6 IU/L
BUN [8]: 21.6 mg/dL
CRE [8]: 0.6 mg/dL
Ca [8]: 10.2 mg/dL
Cl [8]: 103 meq/L
DBIL [8]: 0 mg/dL
GLC [8]: 164 mg/dL
IP [8]: 6.9 mg/dL
K [8]: 4.6 meq/L
LDH [8]: 90.2 IU/L
Na [8]: 135.2 meq/L
PL [8]: 135.6 mg/dL
RALB [8]: 3.9 g/dL
TBIL [8]: 0.3 mg/dL
TC [8]: 60.8 mg/dL
TG [8]: 131.8 mg/dL
TP [8]: 6.4 g/dL
gamma-GTP [8]: 1.6 IU/L

From ChEMBL document CHEMBL3885861, “Open TG-GATES”
